Test results reported in patent US6902901B2, “Polypeptides useful for diagnosis of Aspergillus fumigatus and a process of preparing the same” (Council of Scientific and Industrial Research, priority 1998, dated 2005).

Columns and labels:
[1] = test system: A. fumigatus specific IgE antibodies in sera; test: ELISA of peptide-coated plates with human sera, specific IgE binding
Procedure: Sera derived from 25 healthy persons and 30 culture proven allergic bronchopulmonary aspergillosis patients were probed with synthetic peptides of the present invention for A. fumigatus specific antibodies. NUNC ELISA plates were coated with 0-1 ug/ml of peptide in carbonate-bicarbonate buffer, 0.01 M, pH 9.6 for 2 h at 37° C. The unreacted sites were blocked with bovine serum albumin in phosphate buffered saline, 0.01 M, pH 7.4. Diluted sera (1:100) of patients or healthy controls was added to the wells and Incubated for 3 h at 37° C. […]

[2] = test system: sensitised mast cells of ABPA patients; test: Histamine release from heparinised whole blood incubated with peptides; type: cell-based, human; conditions: 30 min at 37° C.
Procedure: Whole blood (heparinised) was incubated with the peptides for 30 min at 37° C. in polystyrene plates followed by centrifugation and collection of supernatants. The supernatants were acylated and were assayed for acylated histamine by histamine assay kit (Immunotech International).

[3] = test system: mixture of A. fumigatus allergens/antigens and purified 18 kD allergen/antigen; test: Intraperitoneal immunisation of mice with peptide, serum IgG ELISA; type: in vivo, BALB/c mice; conditions: Immunised mice; 300 ug peptide i.p. with Freund's incomplete adjuvant; serum 30 days after immunization
Procedure: Each synthetic peptide (300 ug/150 ul saline) was emulsified with an equal volume of Freund's incomplete adjuvant and used for intraperitoneal immunisation of 3 BALB/c mice. IgG antibodies in the serum collected from these mice 30 days after immunization bound with mixture of A. fumigatus allergens/antigens and purified 18 kD allergen/antigen in ELISA.

[4] = test system: A. fumigatus specific IgG antibodies in sera; test: ELISA of peptide-coated plates with human sera, specific IgG binding; conditions: diluted 1:100
Procedure: Sera derived from 25 healthy persons and 30 culture proven allergic bronchopulmonary aspergillosis patients were probed with synthetic peptides of the present invention for A. fumigatus specific antibodies. NUNC ELISA plates were coated with 0-1 ug/ml of peptide in carbonate-bicarbonate buffer, 0.01 M, pH 9.6 for 2 h at 37° C. The unreacted sites were blocked with bovine serum albumin in phosphate buffered saline, 0.01 M, pH 7.4. Diluted sera (1:100) of patients or healthy controls was added to the wells and Incubated for 3 h at 37° C. Washed plates received anti-human IgG-HRP conjugate for 1.5 h at 37° C. washed plates were then assayed with o-phenylene diamine substrate and read at 492 nm.

[5] = test system: Peripheral blood lymphocytes (PBL); test: Cytokine analysis of PBMC supernatants incubated with peptides; type: cell-based, human; conditions: PBMC supernatant, 6 days culture with peptide
Procedure: Peripheral blood lymphocytes (PBL) from healthy donors and aspergillosis patients were fractionated and 2×10^6 cells/well were cultured in presence or absence of synthetic peptides for 6 days in RPMI 1640 medium with 10% autologous serum. The supernatant medium was collected for cytokine analysis and 0.5 mg/ml solution of MTT was added to each well for 30 min. before harvesting cultures with acidified isopropanol. Absorbance was measured at 590 nm.

Row | Substance | Absorbance at 490 nm, Specific IgE ([1]; Normal sera) | Absorbance at 490 nm, Specific IgE ([1]; Patient sera (ABPA)) | Histamine released ([2]; Normal whole blood) [nM] | Histamine released ([2]; Patient (ABPA) whole blood) [nM] | Absorbance at 490 nm, specific IgG antibodies in mice [3] | Absorbance at 490 nm, Specific IgG ([4]; Normal sera) | Absorbance at 490 nm, Specific IgG ([4]; Patient sera (ABPA)) | IL-2 [5] [pg/mL] | IL-4 [5] [pg/mL] | IL-6 [5] [pg/mL] | IL-10 [5] [pg/mL] | gamma-IFN [5] [pg/mL]
1 | INQQLNPK (listed as Aspergillus fumigatus) [pep 3, 8 aminoacids peptide, aa 6-14 (also printed aa 6-13) of the 18 kD allergen/antigen] | 0.042 | 0.256 | 65 | 369 | 0.434 | 0.011 | 0.674 | 80 | 92 | 620 | 220 | 168
2 | INQQLNPKTNKWEDK (listed as Aspergillus fumigatus) [pep 4, 15 aminoacids peptide, aa 6-20 of the 18 kD allergen/antigen] | 0.028 | 0.235 | 58 | 392 | 0.526 | 0.006 | 0.845 | 400 | 28 | 120 | 40 | 520
3 | LNPKTNKWEDK (listed as Aspergillus fumigatus) [pep 2, 11 aminoacids peptide, aa 10-20 of the 18 kD allergen/antigen] | 0.039 | 0.473 | 82 | 402 | 0.636 | 0.09 | 0.852 | 280 | 48 | 140 | 80 | 320
4 | LNPKTNKWEDKRY [pep 6] | 0.033 | 0.145 | 62 | 278 | 0.547 | 0.004 | 0.828 | 120 | 62 | 760 | 340 | 240
5 | TNKWEDK [pep 5] | 0.032 | 0.208 | 43 | 356 | 0.498 | 0.012 | 0.850 | 260 | 24 | 180 | 36 | 660
